{"source": "patent US10925867B2", "about": "“Immunotherapeutic dosing regimens comprising pomalidomide and an anti-CS1 antibody for treating cancer” (Bristol-Myers Squibb Company, priority 2015, dated 2021)", "key": {"OPM2 xenograft [1]": {"system": "OPM2 xenograft", "description": "Mice with established OPM2 xenograft tumors were randomized into 2 groups with 8 mice per group and were administered one of the following sets of regimens: (A) Control group was left untreated (filled circles), elotuzumab (0.5 mg/kg, twice weekly IP for 7 doses starting d16, open circles), dexamethasone (5 mg/kg, daily IP for 7 doses starting on d16, open triangles), elotuzumab plus dexamethasone combination (filled triangles), pomalidomide (5 mg/kg, daily for 5 days orally starting on d16 and then again for 5 days on d23) plus dexamethasone combination (dashes); or (B) Control group was left untreated (filled circles), elotuzumab (0.5 mg/kg, twice weekly IP for 7 doses starting d16, open circles), pomalidomide (5 mg/kg, daily for 5 days orally starting on d16 and then again for 5 days on d23, open squares), elotuzumab (0.5 mg/kg, twice weekly IP for 10 doses starting d16) plus pomalidomide combination (filled squares), elotuzumab (10 doses) plus pomalidomide plus dexamethasone combination (x's). The data are presented as means+/−standard deviation.\n(§1) Mice with established OPM2 xenograft tumors were randomized into groups with 8 mice per group and were administered one of the following regimens: (A): untreated (control); (B): elotuzumab; (C): pomalidomide; (D): dexamethasone; (E): elotuzumab plus pomalidomide; (F): elotuzumab plus dexamethasone; (G): pomalidomide plus dexamethasone; or (H): elotuzumab plus pomalidomide plus dexamethasone. Data represent tumor weight measured in individual animals. Dosing route and regimen are described in FIG. 2 and Example 1.\n(§2) Animals: All mice were obtained from Taconic Biosciences (Germantown, N.Y.), and maintained in ammonia-free environment in a defined and pathogen-free colony. All animal procedures were approved by the Bristol-Myers Squibb (BMS) Institutional Animal Care and Use Committee. The animal care and use program at BMS has been fully accredited by the Association for Assessment and Accreditation of Laboratory Animal Care International (AAALAC).\n(§3) Animal Models: The human tumor xenograft OPM2 was grown in IcrTac scid mice (ICRPrkdcscid). Treated animals were checked daily for treatment related toxicity/mortality. Each group of animals was weighed before the initiation of treatment (Wt1) and then weighed again following the last treatment dose (Wt2). The difference in body weight (Wt2-Wt1) provides a measure of treatment-related toxicity. Additional weights were recorded at each measurement date to monitor toxicity.\n(§4) Tumor response was determined by measurement of tumors with a caliper twice a week, until the tumors reached a predetermined “target” size of 1 gm. Tumor weights (mg) were estimated from the formula: Tumor weight=(length×width2)/2.\n(§5) Tumor response end-point was expressed in terms of tumor cell kill and tumor growth inhibition. Tumor growth delay was defined as the difference in time (days) required for the treated tumors (T) to reach a predetermined target size compared to those in the control group (C). For this purpose tumor weight of a group was expressed as […] tumor weight (MTW).\n(§6) Tumor cell kill was expressed in terms of log cell kill (LCK), represented by the equation LCK=[…] where tumor volume doubling time (TVDT) was first calculated with the formula: TVDT=Median time (days) for control tumor weight to reach target size−Median time (days) for control tumor weight to reach half the target size."}, "OPM2 xenograft [2]": {"system": "OPM2 xenograft", "description": "FIGS. 4A-B. Study #2 (OPM2-16), Antitumor Activity, Elotuzumab Efficacy in Combination with Pomalidomide and Dexamethasone in OPM2 Multiple Myeloma Xenograft. Mice with established OPM2 xenograft tumors were randomized into 2 groups with 8 mice per group and were administered one of the following sets of regimens: (A) Control group was left untreated (filled circles), elotuzumab (0.5 mg/kg, twice weekly IP for 6 doses starting d12, open circles), dexamethasone (5 mg/kg, daily IP for 7 doses starting on d12, open triangles), elotuzumab (0.5 mg/kg, twice weekly IP for 8 doses starting d12) plus dexamethasone combination (filled triangles), pomalidomide (5 mg/kg, daily for 5 days orally starting on d12 and then again for 5 days on d19) plus dexamethasone combination (dashes); or (B) Control group was left untreated (filled circles), elotuzumab (0.5 mg/kg, twice weekly IP for 6 doses starting d12, open circles), pomalidomide (5 mg/kg, daily for 5 days orally starting on d12 and then again for 5 days on d19, open squares), elotuzumab (0.5 mg/kg, twice weekly IP for 8 doses starting d12) plus pomalidomide combination (filled squares), elotuzumab (0.5 mg/kg, twice weekly IP for 8 doses starting d12) plus pomalidomide plus dexamethasone combination (x's). The data are presented as means+/−standard deviation.\nas §1, with “FIGS. 5A-H. Study #2 (OPM2-16), Anti Tumor Activity of Elotuzumab, Pomalidomide, and Dexamethasone as Single Agent and Combination Treatment in OPM2 Multiple Myeloma Xenograft tumor model. Mice” for “Mice”, “FIG. 4” for “FIG. 2”\nas §2, §3, §4, §5, §6", "remark": "listed apart in the source"}, "[3]": {"system": "refractory or relapsed and refractory MM", "settings": "MM-003; cited from earlier work"}, "multiple myeloma [4]": {"system": "multiple myeloma", "settings": "treated multiple myeloma patients; cited from earlier work"}, "multiple myeloma [5]": {"system": "multiple myeloma", "settings": "cited from earlier work"}, "[6]": {"settings": "Study #1, ELO 0.5, POM 5, DEX 5 mg/kg, mice of 8"}, "[7]": {"settings": "Study #2, ELO 0.5, POM 5, DEX 5 mg/kg, mice of 8"}, "[8]": {"settings": "in combination with dexamethasone as induction therapy before ASCT"}, "[9]": {"settings": "three-drug induction: bortezomib-dexamethasone plus the named drug"}}, "note": "Like-named read-outs stand apart in the source and are kept apart here."}
{"compound": "C[C@@H]1C[C@H]2[C@@H]3CCC4=CC(=O)C=C[C@]4(C)[C@@]3(F)[C@@H](O)C[C@]2(C)[C@@]1(O)C(=O)CO", "note": "[Dexamethasone]", "values": [{"measurement": "Median Days to Target Size", "setting": "OPM2 xenograft [1]; Study #1, ELO 0.5 mg/kg IP 2QW from d16, POM 5 mg/kg PO QD × 5 d16, 23, DEX 5 mg/kg IP QD × 7 from d16, target size 1 gm", "value": 28.0, "unit": "days"}, {"measurement": "LCK", "setting": "OPM2 xenograft [1]; Study #1, ELO 0.5, POM 5, DEX 5 mg/kg", "value": 0.14}, {"measurement": "CR (complete tumor regressions)", "setting": "OPM2 xenograft [1]; [6]", "value": "0/8"}, {"measurement": "PR (partial tumor regressions)", "setting": "OPM2 xenograft [1]; [6]", "value": "0/8"}, {"measurement": "TGI", "setting": "OPM2 xenograft [1]; Study #1, ELO 0.5, POM 5, DEX 5 mg/kg, versus untreated mice", "value": 50.4, "unit": "%"}, {"measurement": "Max % Weight Loss", "setting": "OPM2 xenograft [1]; mouse, in vivo", "value": "−5.7", "unit": "%"}, {"measurement": "Median Days to Target Size", "setting": "OPM2 xenograft [2]; Study #2, ELO 0.5 mg/kg IP 2QW from d12, POM 5 mg/kg PO QD × 5 d12, 19, DEX 5 mg/kg IP QD × 7 from d12, target size 1 gm", "value": 25.7, "unit": "days"}, {"measurement": "LCK", "setting": "OPM2 xenograft [2]; Study #2, ELO 0.5, POM 5, DEX 5 mg/kg", "value": 0.63}, {"measurement": "CR (complete tumor regressions)", "setting": "OPM2 xenograft [2]; [7]", "value": "0/8"}, {"measurement": "PR (partial tumor regressions)", "setting": "OPM2 xenograft [2]; [7]", "value": "0/8"}, {"measurement": "TGI", "setting": "OPM2 xenograft [2]; Study #2, ELO 0.5, POM 5, DEX 5 mg/kg, versus untreated mice", "value": 62.8, "unit": "%"}, {"measurement": "Max % Weight Loss", "setting": "OPM2 xenograft [2]; mouse, in vivo", "value": "−9.0", "unit": "%"}, {"measurement": "grade 3-4 anemia", "setting": "[3]", "value": 37, "unit": "%"}, {"measurement": "grade 3-4 bone pain", "setting": "[3]", "value": 5, "unit": "%"}, {"measurement": "grade 3-4 fatigue", "setting": "[3]", "value": 6, "unit": "%"}, {"measurement": "grade 3-4 neutropenia", "setting": "[3]", "value": 16, "unit": "%"}, {"measurement": "grade 3-4 pneumonia", "setting": "[3]", "value": 8, "unit": "%"}, {"measurement": "grade 3-4 thrombocytopenia", "setting": "[3]", "value": 26, "unit": "%"}]}
{"compound": "CC(C)C[C@H](NC(=O)[C@H](Cc1ccccc1)NC(=O)c1cnccn1)B(O)O", "note": "[bortezomib]", "values": [{"measurement": "response rate", "setting": "multiple myeloma [4]", "value": 38, "unit": "%"}, {"measurement": "rates of nearly CR", "setting": "multiple myeloma [5]; [8]", "value": 16, "unit": "%"}]}
{"compound": "O=P1(N(CCCl)CCCl)NCCCO1", "note": "(stereo not drawn) [cyclophosphamide]", "values": [{"measurement": "rates of nearly CR", "setting": "multiple myeloma [5]; [9]", "value": 39, "unit": "%"}]}
{"compound": "COc1cccc2c1C(=O)c1c(O)c3c(c(O)c1C2=O)C[C@@](O)(C(=O)CO)C[C@@H]3O[C@H]1C[C@H](N)[C@H](O)[C@H](C)O1", "note": "[doxorubicin]", "values": [{"measurement": "rates of nearly CR", "setting": "multiple myeloma [5]; [9]", "value": 7, "unit": "%"}]}
{"compound": "Nc1cccc2c1CN(C1CCC(=O)NC1=O)C2=O", "note": "(stereo not drawn) [lenalidomide]", "values": [{"measurement": "response rate", "setting": "multiple myeloma [4]", "value": "40%-50%"}, {"measurement": "rates of nearly CR", "setting": "multiple myeloma [5]; [8]", "value": 15, "unit": "%"}, {"measurement": "rates of nearly CR", "setting": "multiple myeloma [5]; [9]", "value": 57, "unit": "%"}]}
{"compound": "O=C1CCC(N2C(=O)c3ccccc3C2=O)C(=O)N1", "note": "(stereo not drawn) [thalidomide]", "values": [{"measurement": "rates of nearly CR", "setting": "multiple myeloma [5]; [8]", "value": 8, "unit": "%"}, {"measurement": "rates of nearly CR", "setting": "multiple myeloma [5]; [9]", "value": 32, "unit": "%"}]}
